From patent US10517952B2, “Nucleophile-triggered degradable materials and methods of making and using the same” (GEORGIA TECH RESEARCH CORPORATION, priority 2014, dated 2019)

Assay: Release of entrained cargo from PEG-OND hydrogels
Type: physicochemical
Conditions: pH 7.4 PBS, 37° C.; first-order fit
Description: Finally, the diffusion of entrained, rather than covalently anchored, cargos of different sizes out of OND hydrogels of differing stabilities was measured. This was done with a small molecule (carboxyfluorescein), a globular protein (fluorescein-labeled bovine serum albumin, BSA), and a 30-nm protein nanoparticle (fluorescein-labeled bacteriophage Qb virus-like particle). The first and last species have no available thiol groups; the second was reacted with N-ethylmaleimide before gelation to cap cysteine-34 and avoid tethering of the protein cargo to the hydrogel network. Hydrogels derived from 4-PEG-SH and 7a, 7b, or 8 were formed in the presence of each cargo; the speed of this reaction made it highly unlikely that OND connectors were addressed by protein amine groups under these conditions.
Three sets of three 60 μL gels were prepared using linkers 7a, 7b, and 8, respectively. The first set contained 1 mM small molecule probe 5/6-carboxyfluorescein, while the second and third sets contained FITC labeled BSA and Qβ virus-like particle, respectively. The gels were allowed to set for 30 minutes at room temperature before dilution with 3 mL of pH 7.4 100 mM phosphate buffered saline. The samples were incubated at 37° C. and the increase in absorbance of the supernatant at 497 nm was monitored. The fraction of released dye was plotted against incubation time. Least-squares kinetic fitting to a first-order rate law was performed for release profiles obtained for carboxyfluorescein cargo, and for the release of BSA from non-degradable PEG-EONB (8) hydrogel (Solver plug-in, Microsoft Excel).

Substance	kdiffusion of entrained cargo out of PEG-OND hydrogels [s⁻¹]
Bovine serum albumin: globular protein cargo, fluorescein-labeled bovine serum albumin	1.4e-05 ± 2.8e-06
5/6-carboxyfluorescein [reference compound]	0.000183 ± 8.3e-06
